We go through 15 compounds from patent publication US6737424B2 (Zeneca Ltd., priority 1995, dated 2004).

Data set [1] deals with NMDA-induced excitatory response of red nucleus cells. In words: Red nucleus test (Test B). In kind it is in vivo, rat. The settings on record: anesthetized rats. How it is done: The purpose of this test is to determine the effects of intravenously administered glycine antagonists on the NMDA-induced excitatory response of red nucleus cells.
The procedure for the red nucleus test is as follows. Rats are anesthetized with chloral hydrate (400 mg/kg ip) and the femoral vein is catheterized for iv drug administration. Five-barrel micropipettes are stereotaxically positioned in the red nucleus. Typically, three to four of the five barrels are filled as follows: the recording barrel with 2M potassium citrate, the current balancing barrel with 4M NaCl, the drug barrel with 25 mM NMDA, and another drug barrel with 2.5 mM quisqualic acid (QA is only used in selectivity studies). NMDA is iontophoretically applied with an ejection current that is adjusted depending on the sensitivity of each individual red nucleus cell. The NMDA is cycled on and off (usually 30-60 sec. on and 60-120 sec. off) and the firing rate of the cell during each period is recorded. Once the baseline firing rate of the cell has been established, the test drug is administered iv. The effect of the drug on the NMDA-induced excitatory response of the red nucleus cell can be both qualitatively and quantitatively evaluated from the recordings and the raw data accumulated.

The target in data set [2] is T1, glycine receptor of the NMDA receptor complex (Rattus norvegicus, UniProt P35439).
T1 construct: Freshly dissected cortices and hippocampi are homogenized in 0.32 M sucrose; from tissue; host or cells: rat cortex and hippocampus synaptic membranes
In words: [3H]-glycine binding assay (Test A). The source says: The actions of compounds according to the invention as antagonists at the glycine receptor of the NMDA receptor complex can be shown by one or more standard tests such as the [^3H]-glycine binding assay (Test A) and by in vivo tests such as the red nucleus test (Test B) and the Rat Middle Cerebral Artery test (Test C). These tests confirm that compounds of the invention function as NMDA receptor antagonists in vitro and in vivo. Certain compounds of the invention are potent NMDA receptor antagonists.
In the [^3H]-glycine binding assay, neuronal synaptic membranes are prepared from adult (about 250 g) male Sprague-Dawley rats. Freshly dissected cortices and hippocampi are homogenized in 0.32 M sucrose (110 mg/mL). Synaptosomes are isolated by centrifugation (1000×g, 10 min), the supernatant is pelleted (20,000×g, 20 min) and resuspended in double-distilled water. The suspension was centrifuged for 20 minutes at 8,000×g. The resulting supernatant and buffy coat are washed twice (48,000×g, 10 min) and resuspended in double-deionized water. The final pellet is quickly frozen (dry ice/ethanol bath) under double-deionized water and stored at −70° C.
On the day of the experiment, thawed synaptic membranes are homogenized with a Brinkmann Polytron (Brinkmann Instruments, Westbury, N.Y.) tissue homogenizer in 50 millimolar tris(hydroxymethyl)aminomethane citrate, pH 7.1. The membranes are incubated with 0.04% Sufact-AMPS X100 (Pierce, Rockford, Ill.) in buffer for 20 minutes at 37° C. and washed six times by centrifugation (48,000×g, 10 min) and resuspended in buffer. The final pellet is homogenized at 200 mg wet weight/mL of the buffer for the binding assay.
For [^3H]-glycine binding at the N-methyl-D-aspartate receptor, 20 nanomolar [^3H]-glycine (40-60 Ci/mmol, New England Nuclear, Boston, Mass.) is incubated with the membranes suspended in 50 millimolar tris(hydroxymethyl)aminomethane citrate, pH 7.1 for 30 minutes at 4° C. Glycine, 1 millimolar, is used to define the nonspecific binding. Bound [^3H]-glycine is isolated from free using a Brandel (Biomedical Research and Development Laboratories, Gaithersburg, Md.) cell harvester for vacuum filtration over glass fiber filters (Whatman GF/B from Brandel, Gaithersburg, Md.) presoaked in 0.025% polyethylenimine. The samples retained on the glass fiber filters are rinsed 3 times with a total of 2.5 mL ice cold buffer. Radioactivity is estimated by liquid scintillation counting. IC50 values are obtained from a least-squares regression of a logit-log transformation of the data.

The subject of data set [3] is permanent middle cerebral artery (MCA) occlusion, focal ischemia. In words: Rat Middle Cerebral Artery test (Test C). The settings on record: I.V. dose of 20 mgs/kg/hr, SHR rats, 24 hours after MCA/common carotid artery occlusion. In kind it is in vivo. Here is the method:
Male SHR rats weighing 280-320 g are used for these studies. The method used for permanent middle cerebral artery (MCA) occlusion is as described by Brint et al (1988). […] Following occlusions, drugs are administered intravenously via jugular catheter. Twenty-four hours after MCA/common carotid artery occlusion, the animals are sacrificed and their brains quickly removed. Coronal sections of 1 mm thickness are cut using a vibratome and stained with 2,3,5-triphenyl-2H-tetrazolium chloride (TTC) dye. Following staining, necrotic tissue is readily distinguished from the intact brain and the area of infarcted cortex can be traced on an image analyzer. The infarct volume for each section is quantified with an image analyzer, and the total infarct volume is calculated with a program that summed all interval volume. See S. Brint et al. J. Cerebral Blood Flow 8:474-485 (1988). The statistical analysis of the difference between the volume of ischemic damage in the vehicle control and drug-treated animals is analyzed by Student's t-test. […] For example, the compound of example 4 at an I.V. dose of 20 mgs/kg/hr caused an infarct % volume change of −22%.

Like-named read-outs stand apart in the source and are kept apart here. Where only a bound is given, the exact number is not on record here.

Consider `CC(Cc1ccccc1)n1nc(O)c2[nH]c3cc(Cl)ccc3c(=O)c2c1=O` (stereo not drawn) (hydrate or solvate) [Example 5, 7-chloro-4-hydroxy-2-(1-methyl-2-phenylethyl)-1,2,5,10-tetrahydropyridazino[4,5-b]quinoline-1,10-dione], for which the melting point (usually the temperature, or range, at which the solid turns liquid) lay in the range of 241 to 244 °C.

In the case of `COC(=O)[C@@H](C)n1nc(O)c2[nH]c3cc(Cl)ccc3c(=O)c2c1=O` (hydrate or solvate) [Example 7, 7-chloro-4-hydroxy-2-[(R)-1-(methyloxycarbonyl)-ethyl]-1,2,5,10-tetrahydropyridazino[4,5-b]quinoline-1,10-dione], the melting point is 262 to 264 °C.

In turn, `COC(=O)C1(Cn2nc(O)c3[nH]c4cc(Cl)ccc4c(=O)c3c2=O)C=CC=CC1` (stereo not drawn) (hydrate or solvate) [Example 8, 7-chloro-4-hydroxy-2-[1-(methyloxycarbonyl)-benzyl]-1,2,5,10-tetrahydropyridazino[4,5-b]quinoline-1,10-dione] yielded a melting point of 242 to 244 °C.

Turning to `O=c1c2ccc(Cl)cc2[nH]c2c(O)nn(CC3(C(F)(F)F)C=CC=CC3)c(=O)c12` (stereo not drawn) (hydrate or solvate) [Example 12, 7-chloro-4-hydroxy-2-(1-trifluoromethylbenzyl)-1,2,5,10-tetrahydropyridazino[4,5-b]quinoline-1,10-dione], the melting point is 237 to 238 °C.

Consider `C/C(=C\C(N)C(=O)O)CP(=O)(O)O` (stereo not drawn) [CGP 37849], for which, in data set [1] (reference agents, intravenous), the “ID50, red nucleus test” value worked out at 1.7 mg/kg iv.

Consider `CC(C(=O)Nc1ccccc1)n1nc(O)c2[nH]c3cc(Cl)ccc3c(=O)c2c1=O` (stereo not drawn) [Example 1, 7-chloro-4-hydroxy-2-[1-(phenylcarbamoyl)ethyl]-1,2,5,10-tetrahydropyridazino[4,5-b]quinoline-1,10-dione], for which the melting point was greater than 250 °C. Also, the half-maximal inhibitory concentration (IC50) (in general, the concentration that inhibits the measured activity by half) in data set [2] amounted to 240 nM.

In turn, `O=c1c2ccc(Cl)cc2[nH]c2c(O)nn(C3CCCCC3)c(=O)c12` [Example 2, 7-chloro-4-hydroxy-2-cyclohexyl-1,2,5,10-tetrahydropyridazino[4,5-b]quinoline-1,10-dione] yielded a melting point greater than 100 °C. Besides, the half-inhibitory concentration (IC50) in data set [2] (rat cortex/hippocampus synaptic membranes, 20 nanomolar [3H]-glycine, 30 minutes at 4° C., pH 7.1, read-out: IC50, [3H]-glycine binding) worked out at 120 nM.

With `CC(c1ccccc1)n1nc(O)c2[nH]c3cc(Cl)ccc3c(=O)c2c1=O` (stereo not drawn) [Example 3], in data set [2], the IC50 stood at 370 nM.

In the case of `CCCC(C)n1nc(O)c2[nH]c3cc(Cl)ccc3c(=O)c2c1=O` (stereo not drawn) [Example 4, 7-chloro-4-hydroxy-2-(1-methylbutyl)-1,2,5,10-tetrahydropyridazino[4,5-b]quinoline-1,10-dione], the melting point lay in the range of 237 to 239 °C. In addition, the IC50 in data set [2] was 240 nM. Besides, the ID50, red nucleus test in data set [1] (as the meglumine salt (N=3), iv) came out at 3.77 mg/kg. Besides, the “infarct % volume change” value in data set [3] is recorded as −22%.

The compound `CC(Cc1ccccc1)n1nc(O)c2[nH]c3cc(Cl)ccc3c(=O)c2c1=O` (stereo not drawn) [Example 5, 7-chloro-4-hydroxy-2-(1-methyl-2-phenylethyl)-1,2,5,10-tetrahydropyridazino[4,5-b]quinoline-1,10-dione] yielded a 50% inhibitory concentration (IC50) in data set [2] of 300 nM.

`CC(C)CC(C)n1nc(O)c2[nH]c3cc(Cl)ccc3c(=O)c2c1=O` (stereo not drawn) [Example 6, 7-chloro-4-hydroxy-2-(1,3-dimethylbutyl)-1,2,5,10-tetrahydropyridazino[4,5-b]quinoline-1,10-dione]: the melting point lay within 238 to 240 °C. In data set [2], this compound registered a half-inhibitory concentration (IC50) of 290 nM.

The compound `CC(CC(=O)Nc1ccccc1)n1nc(O)c2[nH]c3cc(Cl)ccc3c(=O)c2c1=O` (stereo not drawn) [Example 10, 7-chloro-4-hydroxy-2-[1-methyl-2-(N-phenylcarbamoyl)ethyl]-1,2,5,10-tetrahydropyridazino[4,5-b]quinoline-1,10-dione] showed a melting point greater than 250 °C.

In the case of `CC(CC(=O)N(C)c1ccccc1)n1nc(O)c2[nH]c3cc(Cl)ccc3c(=O)c2c1=O` (stereo not drawn) [Example 11, 7-chloro-4-hydroxy-2-[1-methyl-2-(N-phenyl-N-methylcarbamoyl)ethyl]-1,2,5,10-tetrahydropyridazino[4,5-b]quinoline-1,10-dione], the melting point is 218 to 219 °C.

Turning to `C[C@H](C(=O)O)n1nc(O)c2[nH]c3cc(Cl)ccc3c(=O)c2c1=O` [Example 13, 7-chloro-4-hydroxy-2-[(R)-1-carboxyethyl]-1,2,5,10-tetrahydropyridazino[4,5-b]quinoline-1,10-dione], the melting point is greater than 275 °C.

Turning to `NC1CCN(O)C1=O` (stereo not drawn) [HA-966], the “ID50, red nucleus test” value in data set [1] (reference agents, intravenous) amounted to 7.9 mg/kg iv.
